Test results from US8658639B2, “N-substituted-cyclic amino derivative” (Dainippon Sumitomo Pharma Co., Ltd, priority 2009, dated 2014).
Structures can show the parent of a compound that is named as a salt.

Biological target: T1, Recombinant human renin (Homo sapiens, UniProt P00797)
T1 sequence (P00797 67-406): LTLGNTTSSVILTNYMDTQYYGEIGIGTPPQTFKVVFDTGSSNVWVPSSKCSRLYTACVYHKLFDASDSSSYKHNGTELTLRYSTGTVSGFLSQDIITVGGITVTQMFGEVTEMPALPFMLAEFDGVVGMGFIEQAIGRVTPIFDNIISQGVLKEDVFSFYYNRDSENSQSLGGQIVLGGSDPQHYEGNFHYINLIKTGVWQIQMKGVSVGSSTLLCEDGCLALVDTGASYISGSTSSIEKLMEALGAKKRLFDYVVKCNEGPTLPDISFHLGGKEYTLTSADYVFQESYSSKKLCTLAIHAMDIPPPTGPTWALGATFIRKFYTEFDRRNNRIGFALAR
Experiment: In vitro renin inhibitory activity assay
Assay type: biochemical
Settings: recombinant human renin 4.2 ng/mL, substrate 4 μM, 37° C., one hour, pH 7.4
Protocol: Experiment 1: In Vitro Renin Inhibitory Activity Assay
Recombinant human renin (4.2 ng/mL) was reacted in 0.1M HEPES buffer (pH 7.4) containing 0.1M NaCl, 1 mM EDTA and 0.1 mg/mL BSA together with a substrate and a test compound at 37° C. for one hour. As the substrate, Arg-Glu(EDANS)-Ile-His-Pro-Phe-His-Leu-Val-Ile-His-Thr-Lys(DABCYL)-Arg (SEQ ID NO: 1) or DABCYL-γ-Abu-Ile-His-Pro-Phe-His-Leu-Val-Ile-His-Thr-EDANS (SEQ ID NO: 2) was added in such an amount so that the final concentration thereof became 4 μM. The elevated fluorescence intensity at the exciting wavelength 340 nm and the fluorescence wavelength 500 nm was measured by a fluorescence plate reader. The concentration of a test compound to be needed to inhibit an enzyme activity in the presence of a test compound in several concentrations by 50% was calculated as an IC50 value. The test compounds were diluted in DMSO and used in this Experiment.

Compound	IC50 [nM]
CCC(=O)NCCN1C(=O)C(C)(C)Oc2cc(C)c(C(=O)N(C(C)C)C3CCCN(C(=O)OC(C)OC(=O)C4CCOCC4)C3)cc21 (single isomer, unassigned) [Example 88]	9.6
CCC(=O)NCCN1C(=O)C(C)(C)Oc2cc(C)c(C(=O)N(C(C)C)[C@@H]3CCCN(C(=O)OCOC(=O)C(C)C)C3)cc21 [Example 4]	42
CCC(=O)NCCN1C(=O)C(C)(C)Oc2cc(C)c(C(=O)N(C(C)C)[C@@H]3CCCN(C(=O)OCc4oc(=O)oc4-c4ccccc4)C3)cc21 [Example 7]	1.3
CCC(=O)NCCN1C(=O)C(C)(C)Oc2cc(C)c(C(=O)N(C(C)C)[C@@H]3CCCN(C(=O)OCOC(=O)OC)C3)cc21 [Example 9]	140
CCC(=O)NCCN1C(=O)C(C)(C)Oc2cc(C)c(C(=O)N(C(C)C)[C@@H]3CCCN(C(=O)OCOC(=O)OC4CCOCC4)C3)cc21 [Example 13]	5.1
CCC(=O)NCCN1C(=O)C(C)(C)Oc2cc(C)c(C(=O)N(C(C)C)C3CCCN(C(=O)OC(C)OC(=O)CC)C3)cc21 (stereo not shown) [Example 18]	3.6
CCC(=O)NCCN1C(=O)C(C)(C)Oc2cc(C)c(C(=O)N(C(C)C)C3CCCN(C(=O)OC(OC(C)=O)C(C)C)C3)cc21 (stereo not shown) [Example 19]	11
CCC(=O)NCCN1C(=O)C(C)(C)Oc2cc(C(F)(F)F)c(C(=O)N(C(C)C)[C@@H]3CCCN(C(=O)[C@@H](N)C(C)C)C3)cc21 [Example 22, N-Isopropyl-2,2-dimethyl-3-oxo-4-[2-(propionylamino)ethyl]-7-(trifluoromethyl)-N-[(3R)-1-L-valylpiperidin-3-yl]-3,4-dihydro-2H-1,4-benzoxazine-6-carboxamide hydrochloride]	85
CCC(=O)NCCN1C(=O)C(C)(C)Oc2cc(C(F)(F)F)c(C(=O)N(C(C)C)C3CCCN(C(=O)OC(C)OC(=O)C(C)C)C3)cc21 (stereo not shown) [Example 26]	21
CCC(=O)NCCN1C(=O)C(C)(C)Sc2cc(C(F)(F)F)c(C(=O)N(C(C)C)[C@@H]3CCCN(C(=O)OCc4oc(=O)oc4C)C3)cc21 [Example 30, (5-Methyl-2-oxo-1,3-dioxol-4-yl)methyl (3R)-3-[{[2,2-dimethyl-3-oxo-4-[2-(propionylamino)-ethyl]-7-(trifluoromethyl)-3,4-dihydro-2H-1,4-benzothiazin-6-yl]carbonyl}(isopropyl)amino]-piperidine-1-carboxylate]	2.2
CCC(=O)NCCN1C(=O)C(C)(C)Oc2cc(C(F)(F)F)c(C(=O)N(C(C)C)[C@@H]3CCCN(Cc4oc(=O)oc4C)C3)cc21 [Example 31, N-Isopropyl-2,2-dimethyl-N-{(3R)-1-[(5-methyl-2-oxo-1,3-dioxol-4-yl)methyl]piperidin-3-yl}-3-oxo-4-[2-(propionylamino)ethyl]-7-(trifluoromethyl)-3,4-dihydro-2H-1,4-benzoxazine-6-carboxamide]	0.38
CCC(=O)NCCN1C(=O)C2(CCC2)Oc2cc(C)c(C(=O)N(C(C)C)C3CCCN(C(=O)OC(C)OC(C)=O)C3)cc21 (stereo not shown) [Example 33]	1.2
CCC(=O)NCCN1C(=O)C2(CCC2)Oc2cc(C)c(C(=O)N(C(C)C)C3CCCN(C(=O)OC(OC(C)=O)C(C)C)C3)cc21 (stereo not shown) [Example 35]	2.7
CCOC(=O)OC(C)OC(=O)N1CCCC(N(C(=O)c2cc3c(cc2C(F)(F)F)OC(C)(COC)C(=O)N3CCNC(=O)CC)C(C)C)C1 (stereo not shown) [Example 38]	58
Cc1cc2c(cc1C(=O)N(C(C)C)[C@@H]1CCCN(C(=O)OCc3oc(=O)oc3C)C1)N(CCNC(=O)C(F)F)C(=O)C1(CC1)O2 [Example 39]	3.6
CCC(=O)NCCN1C(=O)C2(CC2)Oc2cc(C)c(C(=O)N(C(C)C)[C@@H]3CCCN(C(=O)OCc4oc(=O)oc4C)C3)cc21 [Example 40]	2.6
CCC(=O)NCCN1C(=O)C2(CC2)Oc2cc(C)c(C(=O)N(C(C)C)C3CCCN(C(=O)OC(C)OC(=O)C4CCOCC4)C3)cc21 (stereo not shown) [Example 43]	69
CCC(=O)NCCN1C(=O)C2(CCC2)Oc2cc(C)c(C(=O)N(C(C)C)C3CCCN(C(=O)OC(OC(=O)C(C)C)C(C)C)C3)cc21 (stereo not shown) [Example 45]	52
CCC(=O)NCCN1C(=O)C2(CCC2)Oc2cc(C)c(C(=O)N(C(C)C)C3CCCN(C(=O)OC(OC(=O)CC)C(C)C)C3)cc21 (stereo not shown) [Example 46]	74
CCC(=O)NCCN1C(=O)C2(CCC2)Oc2cc(C)c(C(=O)N(C(C)C)C3CCCN(C(=O)OC(C)OC(=O)C(C)C)C3)cc21 (stereo not shown) [Example 47]	76
CCC(=O)NCCN1C(=O)C2(CCC2)Oc2cc(C)c(C(=O)N(C(C)C)C3CCCN(C(=O)OC(C)OC(=O)COC)C3)cc21 (stereo not shown) [Example 49]	14
CCC(=O)NCCN1C(=O)C2(CCC2)Oc2cc(C)c(C(=O)N(C(C)C)C3CCCN(C(=O)OC(C)OC(=O)CC(C)(C)O)C3)cc21 (stereo not shown) [Example 50]	15
CCC(=O)NCCN1C(=O)C(C)(C)Oc2cc(C)c(C(=O)N(C(C)C)[C@@H]3CCCN(C(=O)O[C@@H](C)OC(=O)CC)C3)cc21 [Example 52]	42

More lines, in order of falling IC50, values ahead:

IC50 [nM]	Compound
460	CCC(=O)NCCN1C(=O)C(C)(C)Oc2cc(C)c(C(=O)N(C(C)C)[C@@H]3CCCN(C(=O)OCOC(=O)OCC4CC4)C3)cc21 [Example 11]
410	CCC(=O)NCCN1C(=O)C(C)(C)Oc2cc(C)c(C(=O)N(C(C)C)C3CCCN(C(=O)OC(C)OC(=O)OC(C)C)C3)cc21 (stereo not shown) [Example 8]
340	CCC(=O)NCCN1C(=O)C2(CCC2)Oc2cc(C)c(C(=O)N(C(C)C)C3CCCN(C(=O)OC(C)OC(=O)C4CCOCC4)C3)cc21 (stereo not shown) [Example 48]
160	CCC(=O)NCCN1C(=O)C(C)(C)Oc2cc(C)c(C(=O)N(C(C)C)[C@@H]3CCCN(C(=O)OC(C)OC(=O)C(C)C)C3)cc21 (stereo partly drawn) [Example 1, 1-(Isobutyryloxy)ethyl (3R)-3-[isopropyl({2,2,7-trimethyl-3-oxo-4-[2-(propionylamino)ethyl]-3,4-dihydro-2H-1,4-benzoxazin-6-yl}carbonyl)amino]piperidine-1-carboxylate]
160	CCC(=O)NCCN1C(=O)C(C)(C)Oc2cc(C)c(C(=O)N(C(C)C)[C@@H]3CCCN(C(=O)OCOC(=O)OC4CCC4)C3)cc21 [Example 12]
140	CCOC(=O)OC(C)OC(=O)N1CCCC(N(C(=O)c2cc3c(cc2C)OC2(CCC2)C(=O)N3CCNC(=O)CC)C(C)C)C1 (stereo not shown) [Example 34]
91	CCC(=O)NCCN1C(=O)C(C)(C)Oc2cc(C)c(C(=O)N(C(C)C)C3CCCN(C(=O)OC(OC(=O)CC)C(C)C)C3)cc21 (stereo not shown) [Example 20]
68	CCC(=O)NCCN1C(=O)C2(CC2)Oc2cc(C)c(C(=O)N(C(C)C)C3CCCN(C(=O)OC(C)OC(=O)CC)C3)cc21 (stereo not shown) [Example 41]
62	CCC(=O)NCCN1C(=O)C(C)(C)Oc2cc(C)c(C(=O)N(C(C)C)[C@@H]3CCCN(C(=O)OC(C)(C)OC(C)=O)C3)cc21 [Example 21, 1-(Acetyloxy)-1-methylethyl (3R)-3-[isopropyl({2,2,7-trimethyl-3-oxo-4-[2-(propionylamino)ethyl]-3,4-dihydro-2H-1,4-benzoxazin-6-yl}carbonyl)amino]piperidine-1-carboxylate]
15	CCC(=O)NCCN1C(=O)C2(CC2)Oc2cc(C)c(C(=O)N(C(C)C)C3CCCN(C(=O)OC(C)OC(=O)C(C)C)C3)cc21 (stereo not shown) [Example 42]
1.9	Cc1cc2c(cc1C(=O)N(C(C)C)[C@@H]1CCCN(C(=O)OCc3oc(=O)oc3C)C1)N(CCNC(=O)C(F)F)C(=O)C1(CCC1)O2 [Example 44]
